Results taken from BigSolDB 2.1.

CC1(C)O[C@H]2CC(=O)OC[C@]23[C@H]2CC[C@@]4(C)[C@H](c5ccoc5)OC(=O)[C@H]5O[C@]54[C@]2(C)C(=O)C[C@@H]13
solubility (mole fraction)
Settings | 283.2 K | 288.2 K | 293.2 K | 298.2 K | 303.2 K | 308.2 K | 313.2 K | 318.2 K | 323.2 K
in THF | 0.00242 | 0.00257 | 0.0028 | 0.00309 | 0.00327 | 0.0035 | 0.00408 | 0.00458 | 0.00486
in acetonitrile | 0.00272 | 0.00314 | 0.00349 | 0.00385 | 0.00454 | 0.00523 | 0.00628 | 0.00739 | 0.00857
in chloroform | 0.00425 | 0.00433 | 0.00447 | 0.00458 | 0.00479 | 0.00512 | 0.00531 | 0.0057 | 0.00599
in ethanol | 2.65e-05 | 2.93e-05 | 3.05e-05 | 3.53e-05 | 4.27e-05 | 5.48e-05 | 6.71e-05 | 8.49e-05 | 0.000101
in ethyl acetate | 0.000746 | 0.000761 | 0.000801 | 0.00085 | 0.00094 | 0.000979 | 0.00101 | 0.00119 | 0.00128
in isopropanol | 1.08e-05 | 1.25e-05 | 1.56e-05 | 1.79e-05 | 1.87e-05 | 2.25e-05 | 3.03e-05 | 3.47e-05 | 4.52e-05
in n-butanol | 1.53e-05 | 1.94e-05 | 2.01e-05 | 2.64e-05 | 2.91e-05 | 3.54e-05 | 4.23e-05 | 5.62e-05 | 7.25e-05
in n-butyl acetate | 0.000323 | 0.000349 | 0.000375 | 0.000413 | 0.000484 | 0.00053 | 0.000616 | 0.000646 | 0.00068
